# From US7414078B2, “Oral general anesthetics and metabolitically resistant anticonvulsants” (University of Virginia Patent Foundation, priority 2001, dated 2008)
# Where two headings read alike, the source gives them in different places. Marks after values point to notes of the source that are not given here.
# Tests used:
# [1] = system: Isoflurane anesthesia (minimum alveolar concentration, MAC); assay: General anesthesia test: reduction of isoflurane MAC after i.p. compound; format: in vivo, rats; details: for anesthetic activity: rat, in vivo; for MAC value of Isoflurane at 60 mg/kg of compound / Percent Reduction in Isoflurane: rats; for MAC value of Isoflurane at 60 mg/kg of compound: 60 mg/kg i.p. in peanut oil, 1.2% isoflurane generates 100% anesthesia; for Percent Reduction in Isoflurane: 60 mg/kg i.p., relative to 1.2% isoflurane
# Experimental: The MAC value is the minimum alveolar concentration of anesthetic at 1 atm that produces immobility in 50% of the subjects.
# 200 mg of each compound are tested for general anesthesia activity Testing is performed on rats to determine the percent reduction in the use of isoflurane. Inhaled anesthetics still need to be utilized to rapidly adjust the level of anesthesia. Since no single anesthetic is capable of all four requirements for anesthesia, a combination is utilized. The rats were first anesthetized with isoflurane, intubated, ventilated and then a femoral line was inserted. After the rat had been stable for 15 minutes, the initial minimum alveolar concentration (MAC) value was determined. […] After 30 minutes the second MAC value was determined post administration. Finally, after one hour the third MAC value was determined. At each MAC determination, a sample of blood was taken to determine pH, pCO2, and pO2. The results of the compounds tested to date are compared to the lead compound 17.
# (§1) A classical comparison of log P and MAC reduction was investigated. A graph representing the effects of log P on the biological activity is presented in graphic form (See FIG. 1). The general anesthetic activity of compounds 20-23 and 36-43 were compared to lead compound 17 as represented in the graph (FIG. 1) and in Table 1. The partition coefficient, P, is a measure of the way the compound distributes itself between octanol and water. […] Therefore, meta-substituted derivatives 20 will be the focus of future synthesize. Bulky substituents on the alcohol were also found to have low activity.
# [2] = system: blood pressure / hemodynamics; assay: Hemodynamic effects during isoflurane anesthesia; format: in vivo, rats
# Experimental: 200 mg of each compound are tested for general anesthesia activity Testing is performed on rats to determine the percent reduction in the use of isoflurane. Inhaled anesthetics still need to be utilized to rapidly adjust the level of anesthesia. Since no single anesthetic is capable of all four requirements for anesthesia, a combination is utilized. The rats were first anesthetized with isoflurane, intubated, ventilated and then a femoral line was inserted. After the rat had been stable for 15 minutes, the initial minimum alveolar concentration (MAC) value was determined. Then, 60 mg/kg of drug was sonicated in 3 mL of peanut oil and injected (i.p.). After 30 minutes the second MAC value was determined post administration. Finally, after one hour the third MAC value was determined. At each MAC determination, a sample of blood was taken to determine pH, pCO2, and pO2. The results of the compounds tested to date are compared to the lead compound 17.
# [3] = system: seizures induced by maximal electroshock (MES); assay: Maximal electroshock (MES) test, mice i.p. (NIH); format: in vivo; details: for MES, animals protected/animals tested: mice i.p.; for MES, mice protected: phase I i.p. mice
# Experimental: (§2) 300 mg of each compound was synthesized and sent to the National institute of Health's Anticonvulsant Screening Project of the Antiepileptic Drug Discovery Program. NIH performs anticonvulsant testing (oral and intraperitoneal, i.p.) on both mice and rats in phase I trials. The grand mal model is conducted with a maximal electroshock (MES) test, where corneal electrode implants are primed with a drop of electrolyte solution and an electrical stimulus is delivered for 0.2 second. The model examines the compounds' ability to stop the spread of seizures. The petite mal model is conducted with a subcutaneous pentylenetetrazol seizure threshold (scMet) test. The animals are injected with a convulsant dose of pentylenetetrazol at the peak effect time of the compound. This model measures the compounds' threshold for seizures. A toxicity test (TOX) is performed where the animals walk on a spinning rod for varying lengths of time to check for the loss of righting reflex or other toxic effects.
# [4] = system: pentylenetetrazol-induced seizures (scMet); assay: Subcutaneous pentylenetetrazol seizure threshold (scMet) test, mice i.p. (NIH); format: in vivo; details: for SCMET, animals protected/animals tested: mice i.p.
# Experimental: as §2
# [5] = system: loss of righting reflex or other toxic effects on spinning rod; assay: Toxicity test (TOX), spinning rod, mice i.p. (NIH); format: in vivo; details: for TOX, animals affected/animals tested: mice i.p.
# Experimental: as §2
# toxicity, lethal dose = assay: Toxicity / lethal dose noted with general anesthetic activity comparison; format: in vivo; details: for lethal dose: in vivo; for toxicity: same dosage = 300 mg/kg
# From the text: as §1
# [6] = system: seizures induced by maximal electroshock (MES); assay: Maximal electroshock (MES) test, rat oral (NIH); format: in vivo, rats; details: 30 mg/kg; for MES, animals protected/animals tested: rat oral
# Experimental: as §2
# [7] = system: loss of righting reflex or other toxic effects on spinning rod; assay: Toxicity test (TOX), spinning rod, rat oral (NIH); format: in vivo, rats; details: 30 mg/kg
# Experimental: as §2
# seizures = details: cited from earlier work; for anticonvulsant activity: tested in the 1950's
# blood dyscrasias, rash = details: 1950's findings; cited from earlier work
# rats = assay: Anticonvulsant testing of compound 17 in rats (oral ED50, toxicity, surgical anesthesia); format: in vivo
# From the text: In addition increased halogen size and saturation at the position 3 carbon also increase anesthetic activity. A hydrogen bond donor is also important at the position 2 carbon, but bulk is not well tolerated.
# [8] = rats, 60 mg/kg i.p., isoflurane anesthesia
# [9] = 300 mg/kg, 0.5 hours, footnotes: loss of righting reflex (and one death for Cmp 20, 21)
# [10] = 300 mg/kg, 4.0 hours, footnote c: loss of righting reflex (Cmp 20, 21)
Compound,anesthetic activity [1],MAC value of Isoflurane at 60 mg/kg of compound [1] [%],Percent Reduction in Isoflurane [1] [%],"Hemodynamic Effects [2, 8]","MES, animals protected/animals tested ([3]; 30 mg/kg, 0.5 hours)","MES, animals protected/animals tested ([3]; 30 mg/kg, 4.0 hours)","MES, animals protected/animals tested ([3]; 100 mg/kg, 0.5 hours)","MES, animals protected/animals tested ([3]; 100 mg/kg, 4.0 hours)","SCMET, animals protected/animals tested ([4]; 30 mg/kg, 0.5 hours)","SCMET, animals protected/animals tested ([4]; 30 mg/kg, 4.0 hours)","SCMET, animals protected/animals tested ([4]; 100 mg/kg, 0.5 hours)","SCMET, animals protected/animals tested ([4]; 100 mg/kg, 4.0 hours)","TOX, animals affected/animals tested ([5]; 30 mg/kg, 0.5 hours)","TOX, animals affected/animals tested ([5]; 30 mg/kg, 4.0 hours)","TOX, animals affected/animals tested ([5]; 100 mg/kg, 0.5 hours)","TOX, animals affected/animals tested ([5]; 100 mg/kg, 4.0 hours)","TOX, animals affected/animals tested [5, 9]","TOX, animals affected/animals tested [5, 10]","toxicity (toxicity, lethal dose)",also measured
NC(=O)C(O)(c1cccc(F)c1)C(F)(F)F (racemic) [Compound 20],high activity,0.70,42,lowers blood,0/1^a,0/1,3/3,3/3,2/5,0/1,1/1,1/1,0/4,0/2,6/8,0/4,4/4^b,1/1^c,very toxic,"MES, animals protected/animals tested ([3]; 300 mg/kg, 0.5 hours): 0/0; MES, animals protected/animals tested ([3]; 300 mg/kg, 4.0 hours): 1/1; lethal dose (toxicity, lethal dose): 300 mg/kg"
NC(=O)C(O)(c1ccc(Cl)cc1)C(F)(F)F (racemic) [Compound 21],very active,0.65,46,none,0/1,0/1,0/3,1/3,0/1,0/1,4/4,1/1,0/4,0/2,6/8,3/4,4/4^b,1/1^c,toxic at the same dosage,"SCMET, animals protected/animals tested ([4]; 300 mg/kg, 0.5 hours): 0/0; SCMET, animals protected/animals tested ([4]; 300 mg/kg, 4.0 hours): 1/1; MES, animals protected/animals tested ([6]; 0.25 hrs.): 1/4; MES, animals protected/animals tested ([6]; 0.5 hrs.): 1/4; MES, animals protected/animals tested ([6]; 1.0 hrs.): 1/4; MES, animals protected/animals tested ([6]; 2.0 hrs.): 1/4; MES, animals protected/animals tested ([6]; 4.0 hrs.): 1/4; TOX, animals affected/animals tested ([7]; 0.25 hrs.): 0/4; TOX, animals affected/animals tested ([7]; 0.5 hrs.): 0/4; TOX, animals affected/animals tested ([7]; 1.0 hrs.): 0/4; TOX, animals affected/animals tested ([7]; 2.0 hrs.): 0/4; TOX, animals affected/animals tested ([7]; 4.0 hrs.): 0/4"
"CC(O)(C(N)=O)c1ccccc1 (racemic) [Themisone, α-hydroxy-α-methylbenzeneacetamide]",no anesthetic activity,–,–,–,–,–,–,–,–,–,–,–,–,–,–,–,–,–,–,"mice protected against seizures (seizures; racemic mixture, 250 mg/kg): 4 out of 4; anticonvulsant activity (seizures): very potent anticonvulsant; anticonvulsant activity (seizures; listed as atrolactamide (themisone)): anticonvulsant activity; toxicity (blood dyscrasias, rash): toxic (blood dyscrasias, rash)"
"NC(=O)C(O)(c1ccccc1)C(F)(F)F (stereo not drawn) [Compound 17, 3,3,3-Trifluoro-2-hydroxy-2-phenyl-propionamide]",–,0.65,46,–,–,–,–,–,–,–,–,–,–,–,–,–,–,–,–,"lowering of minimum alveolar concentration (MAC) value of isoflurane ([1]; isoflurane 1.2% in O2, dose not stated): sixty; Hemodynamic Effects ([2]; rat, in vivo): no hemodynamic effects; Hemodynamic Effects ([2]; rat, in vivo, ip, 60 mg/kg): none; ED50 (rats; Rattus norvegicus, rats, oral, read-out: anesthetic activity, oral ED50): 9 mg/kg; toxicity at dose (rats; rats, oral): 300 mg/kg; stage of anesthesia exhibited by animals (rats; third stage: general loss of spinal reflexes and muscle tone): surgical anesthesia"
O=C1Nc2ccccc2C1(O)C(F)(F)F (stereo not drawn) [Compound 22],–,1.05,12.5,none,–,–,–,–,–,–,–,–,–,–,–,–,–,–,–,–
CN1C(=O)C(O)(C(F)(F)F)c2ccccc21 (stereo not drawn) [Compound 23],–,0.95,20.8,none,0/1,0/1,3/3,0/3,1/5,0/1,0/1,0/1,0/4,0/2,1/8,0/4,4/4^c,1/2,–,"MES, animals protected/animals tested ([3]; 300 mg/kg, 0.5 hours): 1/1; MES, animals protected/animals tested ([3]; 300 mg/kg, 4.0 hours): 1/1; SCMET, animals protected/animals tested ([4]; 300 mg/kg, 0.5 hours): 1/1; SCMET, animals protected/animals tested ([4]; 300 mg/kg, 4.0 hours): 1/1; MES, animals protected/animals tested ([6]; 0.25 hrs.): 2/4; MES, animals protected/animals tested ([6]; 0.5 hrs.): 1/4; MES, animals protected/animals tested ([6]; 1.0 hrs.): 2/4; MES, animals protected/animals tested ([6]; 2.0 hrs.): 2/4; MES, animals protected/animals tested ([6]; 4.0 hrs.): 2/4; TOX, animals affected/animals tested ([7]; 0.25 hrs.): 0/4; TOX, animals affected/animals tested ([7]; 0.5 hrs.): 0/4; TOX, animals affected/animals tested ([7]; 1.0 hrs.): 0/4; TOX, animals affected/animals tested ([7]; 2.0 hrs.): 0/4; TOX, animals affected/animals tested ([7]; 4.0 hrs.): 0/4"
"NC(=O)C(O)(c1ccc(F)cc1)C(F)(F)F (stereo not drawn) [Compound 39, 3,3,3-Trifluoro-2-hydroxy-2-(4-fluoro-phenyl)-propionamide]",very active,–,–,–,–,–,–,–,–,–,–,–,–,–,–,–,–,–,toxic at the same dosage,"animals with a 100% reduction in Isoflurane MAC ([1]; 300 mg/kg): 3 out of 4; MES, mice protected ([3]; 100 mg/kg, duration of 0.5 hours): 5 out of 5; MES, mice protected ([3]; 100 mg/kg, duration of 1 hour): 2 out of 3; activity as an anticonvulsant in scMET assay ([4]; species and dose not stated): demonstrated activity; Neurotoxicity, mice unable to grasp rod ([5]; mice, 100 mg/kg, duration of 0.5 hours): seven of eight; MES, rats protected ([6]; phase I oral rat, duration of 2 hours): 4 out of 4"
NC(=O)C(O)(c1ccccc1)C(F)(F)Cl (stereo not drawn) [Compound 42],high activity,–,–,–,–,–,–,–,–,–,–,–,–,–,–,–,–,–,very toxic,"lethal dose (toxicity, lethal dose): 300 mg/kg"
